Measurements: patent publication US20080167347A1, “Ctgf Expression Inhibitor” (SHIONGI & CO., LTD., priority 2005, published 2008)

Test system: human CTGF promoter region containing TGF-β responsive element
Experiment: Luciferase assay of CTGF promoter activity in Ms0-2-3 cells stimulated with TGF-β
Format: cell-based
Conditions: Mesangial cell; Ms0-2-3 rat mesangial cells, TGF-β 2 ng/ml stimulation, luciferase activity after 24 hours; read-out: IC50 (inhibitory rate against CTGF promoter activity)
Protocol: Several kidneys of 6 to 8-week-old male Wistar rats were perfused with sterilized phosphate buffered saline (PBS) and excised. Glomeruli were isolated from the cortex by a sieving method (with 180, 125 or 63 μm mesh). Isolated glomeruli were cultured in RPMI1640 medium containing 20% bovine serum, 1% penicillin-streptomycin and 1% Hepes buffer at 37° C. under 5% carbon dioxide (CO2) atmosphere. After 3 weeks, the medium was changed to the new one. After 4 weeks, mesangial cells which proliferated and became confluent were diluted 2 to 5 times and subcultured. Subcultures were repeated over 20 times, and mesangial cells cultured in usual RPMI1640 medium containing 10% bovine serum, 1% penicillin-streptomycin and 1% Hepes buffer were cloned by a limiting dilution method to establish cell line Ms0-2. […]
Luciferase assay was performed with Ms0-2-3 cells which were cultured with serum-free medium for 48 hours. […] Substrate was added thereto and luciferase activity of each well was measured by luminometer. Enhancement of luciferase activity by TGF-β stimulation (without a compound) was determined as 100% and the inhibitory rate of activity by addition of the compound was calculated. The value obtained from the inhibitory curve was judged as the inhibitory rate against CTGF promoter activity and determined as IC50 value. […]

Work on `O=C(Nc1cccc(C(F)(F)F)c1)c1cc(-c2ccc(OC(F)(F)F)cc2)ccc1O` [Compound 43] yielded an IC50 of 102 nM.
